Like-named read-outs stand apart in the source and are kept apart here.
What was measured:
Pten^−/− and WT MEFs = assay: Drug response assay (GI50 dose titration) in Pten WT and KO MEFs; format: cell-based, mouse; conditions: GI50 dose titration (FIG. 2A)
Experimental: FIG. 2F is a graph comparing various human breast cancer cell line growth rates. FIG. 2G is a series of immunoblots of pAKT in nuclear fractions of Pten^−/− and Pik3ca mutant MEFs. […] Data shown as mean+SD.
1500 cells per well (mouse cells) or 3000 cells per well (human cells) were plated in 96-well plates (Corning 720089). Growth rates were determined using the phase-confluency readings on an IncuCyte ZOOM (Essen Biosciences) on live cells over time.
Cells were plated in 96-well plates at a density of 1500 or 3000 cells per well. […] Sensitivity was determined by a dose-response titration for each cell line, with an equivalent amount of DMSO in each well. For cell death assays, DRAQ7™ (Cell Signaling 7406S) was added to the media at a 1:200 dilution and red fluorescence was measured in addition to phase in live-cell imaging to measure accumulation of dead cells. An IncuCyte ZOOM was used.

[1] = cited from earlier work
[2] = healthy subjects; cited from earlier work
CYP2C8 = molecular target: T1, CYP2C8 (Homo sapiens, UniProt P10632); conditions: repeated doses of teriflunomide, single dose of 0.25 mg repaglinide; cited from earlier work
T1 construct: host or cells: human subjects, in vivo
T1 sequence (P10632 whole entry): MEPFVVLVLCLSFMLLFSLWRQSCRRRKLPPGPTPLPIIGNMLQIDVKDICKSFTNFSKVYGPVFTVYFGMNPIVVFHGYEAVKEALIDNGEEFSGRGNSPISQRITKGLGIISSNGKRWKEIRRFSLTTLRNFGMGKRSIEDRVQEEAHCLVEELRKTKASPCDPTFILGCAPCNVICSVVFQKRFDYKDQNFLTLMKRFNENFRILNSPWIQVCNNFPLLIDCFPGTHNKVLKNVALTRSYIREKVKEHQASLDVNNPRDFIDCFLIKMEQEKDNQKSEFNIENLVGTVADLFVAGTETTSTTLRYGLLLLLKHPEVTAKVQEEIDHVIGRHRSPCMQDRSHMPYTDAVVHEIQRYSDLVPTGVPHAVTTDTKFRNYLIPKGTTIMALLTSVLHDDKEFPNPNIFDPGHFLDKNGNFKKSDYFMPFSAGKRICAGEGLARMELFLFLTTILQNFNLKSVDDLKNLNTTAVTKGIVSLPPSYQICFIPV

CYP1A2 = conditions: repeated doses of teriflunomide; cited from earlier work
[3] = molecular target: T2, organic anion transporter 3 (OAT3) (Homo sapiens, UniProt Q8TCC7); conditions: repeated doses of teriflunomide; cited from earlier work
T2 construct: host or cells: human subjects, in vivo
T2 sequence (Q8TCC7 whole entry): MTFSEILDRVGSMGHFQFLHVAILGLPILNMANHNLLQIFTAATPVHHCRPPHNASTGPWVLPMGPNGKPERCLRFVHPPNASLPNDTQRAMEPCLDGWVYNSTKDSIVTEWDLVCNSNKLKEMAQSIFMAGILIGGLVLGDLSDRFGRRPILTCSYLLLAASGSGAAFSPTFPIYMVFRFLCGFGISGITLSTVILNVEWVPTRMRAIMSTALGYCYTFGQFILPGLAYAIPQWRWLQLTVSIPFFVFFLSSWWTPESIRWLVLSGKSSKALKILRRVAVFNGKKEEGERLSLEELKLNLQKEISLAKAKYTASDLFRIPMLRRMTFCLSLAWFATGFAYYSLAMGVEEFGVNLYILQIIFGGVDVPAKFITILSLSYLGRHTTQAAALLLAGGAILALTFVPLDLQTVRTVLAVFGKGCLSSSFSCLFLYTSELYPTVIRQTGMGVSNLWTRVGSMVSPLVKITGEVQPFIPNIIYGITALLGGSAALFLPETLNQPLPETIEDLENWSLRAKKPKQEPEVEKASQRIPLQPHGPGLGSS

[4] = tested on: BCRP transporter and organic anion transporting polypeptide 1B1 and 1B3 (OATP1B1/1B3); conditions: repeated doses of teriflunomide; cited from earlier work
CYP2B6 = molecular target: T3, CYP2B6 (Homo sapiens, UniProt P20813); conditions: in vivo; cited from earlier work
T3 construct: host or cells: human subjects, in vivo
T3 sequence (P20813 whole entry): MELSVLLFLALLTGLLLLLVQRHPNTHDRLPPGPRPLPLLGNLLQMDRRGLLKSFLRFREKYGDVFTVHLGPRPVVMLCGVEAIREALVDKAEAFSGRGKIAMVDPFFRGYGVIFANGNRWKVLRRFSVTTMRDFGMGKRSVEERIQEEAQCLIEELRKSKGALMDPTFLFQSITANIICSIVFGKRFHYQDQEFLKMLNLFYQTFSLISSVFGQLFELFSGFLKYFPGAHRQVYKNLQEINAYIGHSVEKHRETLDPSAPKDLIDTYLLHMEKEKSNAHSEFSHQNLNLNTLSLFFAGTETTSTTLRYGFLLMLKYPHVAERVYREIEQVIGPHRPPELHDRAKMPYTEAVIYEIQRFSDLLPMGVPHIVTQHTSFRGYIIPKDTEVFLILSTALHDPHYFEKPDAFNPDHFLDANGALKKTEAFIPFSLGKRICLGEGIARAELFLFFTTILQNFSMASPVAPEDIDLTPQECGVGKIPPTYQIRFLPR

CYP3A4 = molecular target: T4, CYP3A4 (Homo sapiens, UniProt P08684); conditions: in vivo; cited from earlier work
T4 construct: midazolam (a CYP3A4 substrate); host or cells: human subjects, in vivo
T4 sequence (P08684 whole entry): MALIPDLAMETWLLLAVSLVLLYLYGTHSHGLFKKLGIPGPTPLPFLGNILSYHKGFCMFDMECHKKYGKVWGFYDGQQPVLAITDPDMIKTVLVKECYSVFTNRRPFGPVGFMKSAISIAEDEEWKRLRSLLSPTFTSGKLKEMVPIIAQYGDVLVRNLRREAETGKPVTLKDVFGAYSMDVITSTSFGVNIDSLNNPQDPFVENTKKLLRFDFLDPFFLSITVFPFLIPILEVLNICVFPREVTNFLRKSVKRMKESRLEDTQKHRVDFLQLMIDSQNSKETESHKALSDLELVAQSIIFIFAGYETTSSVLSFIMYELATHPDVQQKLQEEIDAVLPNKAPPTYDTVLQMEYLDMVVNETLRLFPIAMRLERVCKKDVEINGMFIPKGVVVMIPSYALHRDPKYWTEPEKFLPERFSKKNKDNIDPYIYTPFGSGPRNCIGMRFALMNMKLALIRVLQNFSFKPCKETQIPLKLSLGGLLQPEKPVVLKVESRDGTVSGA

CYP2C9 = molecular target: T5, CYP2C9 (Homo sapiens, UniProt P11712); conditions: in vivo; cited from earlier work
T5 construct: S-warfarin (a CYP2C9 substrate); host or cells: human subjects, in vivo
T5 sequence (P11712 whole entry): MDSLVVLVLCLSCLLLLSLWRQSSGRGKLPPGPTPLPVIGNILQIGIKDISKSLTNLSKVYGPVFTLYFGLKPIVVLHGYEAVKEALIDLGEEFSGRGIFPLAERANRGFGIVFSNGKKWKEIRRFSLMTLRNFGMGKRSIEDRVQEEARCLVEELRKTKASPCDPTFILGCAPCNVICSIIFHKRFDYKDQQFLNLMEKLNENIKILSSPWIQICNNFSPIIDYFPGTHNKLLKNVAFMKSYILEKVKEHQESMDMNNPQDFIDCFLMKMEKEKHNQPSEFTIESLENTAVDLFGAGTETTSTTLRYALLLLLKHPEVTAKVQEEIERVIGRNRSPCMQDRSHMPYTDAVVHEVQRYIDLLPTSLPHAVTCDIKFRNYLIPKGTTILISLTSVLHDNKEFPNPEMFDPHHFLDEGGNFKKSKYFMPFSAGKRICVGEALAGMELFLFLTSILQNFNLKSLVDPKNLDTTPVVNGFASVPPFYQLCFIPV

CYP2C19 = molecular target: T6, CYP2C19 (Homo sapiens, UniProt P33261); conditions: in vivo; cited from earlier work
T6 construct: omeprazole (a CYP2C19 substrate); host or cells: human subjects, in vivo
T6 sequence (P33261 whole entry): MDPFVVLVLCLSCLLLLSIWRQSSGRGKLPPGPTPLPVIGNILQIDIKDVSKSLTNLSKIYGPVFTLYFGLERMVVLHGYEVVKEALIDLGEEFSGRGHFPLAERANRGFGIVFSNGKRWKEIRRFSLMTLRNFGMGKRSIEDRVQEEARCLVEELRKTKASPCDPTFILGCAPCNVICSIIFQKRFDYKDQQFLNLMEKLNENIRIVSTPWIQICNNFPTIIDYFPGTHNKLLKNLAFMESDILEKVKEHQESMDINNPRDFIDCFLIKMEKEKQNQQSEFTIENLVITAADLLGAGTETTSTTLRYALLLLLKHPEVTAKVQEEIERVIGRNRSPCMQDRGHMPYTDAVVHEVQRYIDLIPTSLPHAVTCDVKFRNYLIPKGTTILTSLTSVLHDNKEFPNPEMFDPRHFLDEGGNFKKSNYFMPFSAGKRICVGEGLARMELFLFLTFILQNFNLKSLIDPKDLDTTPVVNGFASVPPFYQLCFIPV

CYP2D6 = molecular target: T7, CYP2D6 (Homo sapiens, UniProt P10635); conditions: in vivo; cited from earlier work
T7 construct: metoprolol (a CYP2D6 substrate); host or cells: human subjects, in vivo
T7 sequence (P10635 whole entry): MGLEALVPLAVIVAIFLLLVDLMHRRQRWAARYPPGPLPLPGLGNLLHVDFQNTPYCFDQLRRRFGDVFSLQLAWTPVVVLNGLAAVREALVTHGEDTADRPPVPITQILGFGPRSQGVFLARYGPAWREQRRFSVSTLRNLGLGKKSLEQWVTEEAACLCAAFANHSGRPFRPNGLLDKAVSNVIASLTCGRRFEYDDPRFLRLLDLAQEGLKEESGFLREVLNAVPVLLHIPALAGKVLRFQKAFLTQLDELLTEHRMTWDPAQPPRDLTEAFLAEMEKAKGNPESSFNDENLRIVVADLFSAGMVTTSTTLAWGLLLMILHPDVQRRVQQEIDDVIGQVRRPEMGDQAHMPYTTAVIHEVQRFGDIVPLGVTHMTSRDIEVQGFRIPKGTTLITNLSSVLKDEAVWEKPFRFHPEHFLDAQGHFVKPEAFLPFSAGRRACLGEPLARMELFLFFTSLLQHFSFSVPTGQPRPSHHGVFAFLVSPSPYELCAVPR

[5] = in vivo; cited from earlier work
[6] = multiple sclerosis patients, cited from earlier work; for Alopecia / Arthralgia / Diarrhea / Headache / Nausea / Neutropenia / Parathesia: all grades

In the case of `C/C(O)=C(\C#N)C(=O)Nc1ccc(C(F)(F)F)cc1` [teriflunomide, (Z)-2-Cyano-3-hydroxy-but-2-enoic acid-(4trifluoromethylphenyl)-amide], the “sensitivity of Pten^−/− MEFs compared with WT MEFs” value (Pten^−/− and WT MEFs) is given as “more sensitive”, the “free fraction of teriflunomide” value ([1]; patients with chronic renal insufficiency on CAPD or hemodialysis) is given as “almost doubled” and the “impact of CAPD or hemodialysis on circulating levels of teriflunomide” value ([1]; single dose, patients (n=6) with chronic renal insufficiency) is given as “neither had a significant impact”. For the same molecule, the QT interval prolongation [2] was “no evidence that teriflunomide caused QT interval prolongation of clinical significance”, the “upper bound of the 90% confidence interval for the largest placebo-adjusted, baseline-corrected QTc” value [2] was “below 10 ms” and the “increase in mean repaglinide AUC” value (CYP2C8) was 2.4 fold. The “increase in mean repaglinide Cmax” value (CYP2C8) was 1.7 fold, the “decrease in mean AUC of caffeine” value (CYP1A2) was 55% and the “decrease in mean Cmax of caffeine” value (CYP1A2) was 18%. The “increase in mean cefaclor AUC” value [3] was 1.54 fold, the “increase in mean cefaclor Cmax” value [3] was 1.43 fold and the “increase in mean rosuvastatin AUC” value [4] was 2.51 fold. The “increase in mean rosuvastatin Cmax” value [4] was 2.65 fold, the “effect on pharmacokinetics of bupropion (a CYP2B6 substrate)” value (CYP2B6) was “does not affect the pharmacokinetics” and the “effect on pharmacokinetics of midazolam (a CYP3A4 substrate)” value (CYP3A4) was “does not affect the pharmacokinetics”. The “effect on pharmacokinetics of S-warfarin (a CYP2C9 substrate)” value (CYP2C9) was “does not affect the pharmacokinetics”, the “effect on pharmacokinetics of omeprazole (a CYP2C19 substrate)” value (CYP2C19) was “does not affect the pharmacokinetics” and the “effect on pharmacokinetics of metoprolol (a CYP2D6 substrate)” value (CYP2D6) was “does not affect the pharmacokinetics”. For the same molecule, the “effect of rifampin on the pharmacokinetics of teriflunomide” value [5] was “does not affect the pharmacokinetics”, the Alopecia ([6]; 7 mg/day (n = 1045)) was 10% and the Arthralgia ([6]; 7 mg/day (n = 1045)) was 8%. The Diarrhea ([6]; 7 mg/day (n = 1045)) was 13%, the Headache ([6]; 7 mg/day (n = 1045)) was 18% and the Nausea ([6]; 7 mg/day (n = 1045)) was 8%. The Neutropenia ([6]; 7 mg/day (n = 1045)) was 4%, the Parathesia ([6]; 7 mg/day (n = 1045)) was 8% and the “Elevated ALT, >3 × upper limit of normal” value ([6]; 7 mg/day (n = 1045)) was 6%. The “Elevated ALT, serious adverse events leading to treatment withdrawal” value ([6]; 7 mg/day (n = 1045)) was 3%, the “Hypertension (new onset)” value ([6]; 7 mg/day (n = 1045)) was 3% and the “Peripheral Neuropathy, serious adverse events leading to treatment withdrawal” value ([6]; 7 mg/day (n = 1045)) was 0.3%. For the same molecule, the “Serious Infection” value ([6]; 7 mg/day (n = 1045)) was 2%, the Alopecia ([6]; 14 mg/day (n = 1002)) was 13% and the Arthralgia ([6]; 14 mg/day (n = 1002)) was 6%. The Diarrhea ([6]; 14 mg/day (n = 1002)) was 14%, the Headache ([6]; 14 mg/day (n = 1002)) was 16% and the Nausea ([6]; 14 mg/day (n = 1002)) was 11%. For the same molecule, the Neutropenia ([6]; 14 mg/day (n = 1002)) was 6%, the Parathesia ([6]; 14 mg/day (n = 1002)) was 9% and the “Elevated ALT, >3 × upper limit of normal” value ([6]; 14 mg/day (n = 1002)) was 6%. The “Elevated ALT, serious adverse events leading to treatment withdrawal” value ([6]; 14 mg/day (n = 1002)) was 3%, the “Hypertension (new onset)” value ([6]; 14 mg/day (n = 1002)) was 4% and the “Peripheral Neuropathy, serious adverse events leading to treatment withdrawal” value ([6]; 14 mg/day (n = 1002)) was 0.5%. The “Serious Infection” value ([6]; 14 mg/day (n = 1002)) was 3%.
